Measurements from US10730874B2 (Shire Human Genetic Therapies, Inc., priority 2018, dated 2020).

Target: human activated kallikrein enzyme (plasma kallikrein) (Homo sapiens (Human), UniProt P03952)
Assay: Inhibition of human activated plasma kallikrein, fluorogenic peptide substrate assay, 500 pM enzyme format
Format: biochemical
Conditions: not given
Experimental: Example compounds were evaluated for inhibition of the human activated kallikrein enzyme in two formats of an assay employing a fluorogenic peptide substrate. In one assay format, the concentrations of reagents were as follows: 20 mM Tris pH 7.5, 1 mM EDTA, 150 mM sodium chloride, 0.1% PEG-400, 0.1% Triton X-100, 500 pM activated kallikrein enzyme, 300 uM Pro-Phe-Arg-7-amido-4-methylcoumarin substrate. Prior to reaction initiation with substrate, enzyme and inhibitors were preincubated for 30 min at RT. After initiation with substrate, reactions were incubated for 10 min at RT and fluorescence emission at 460 nm from 380 nm excitation measured with a microplate reader. In another assay format, the concentrations of reagents were as follows: 20 mM Tris pH 7.5, 1 mM EDTA, 150 mM sodium chloride, 0.1% PEG-400, 0.1% Triton X-100, 5 pM activated kallikrein enzyme, 300 uM Pro-Phe-Arg-7-amido-4-methylcoumarin substrate. Prior to reaction initiation with substrate, enzyme and inhibitors were preincubated for 30 min at RT. After initiation with substrate, reactions were incubated for 18 h at RT and fluorescence emission at 460 nm from 380 nm excitation measured with a microplate reader.

Chain of human activated kallikrein enzyme (plasma kallikrein) (P03952 391-638): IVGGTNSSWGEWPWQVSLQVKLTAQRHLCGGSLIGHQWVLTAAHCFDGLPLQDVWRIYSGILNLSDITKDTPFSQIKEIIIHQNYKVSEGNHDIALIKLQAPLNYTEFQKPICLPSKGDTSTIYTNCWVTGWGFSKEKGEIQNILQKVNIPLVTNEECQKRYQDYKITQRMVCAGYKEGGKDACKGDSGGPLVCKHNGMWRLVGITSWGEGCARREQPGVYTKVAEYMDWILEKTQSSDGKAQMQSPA
Chain of human activated kallikrein enzyme (plasma kallikrein) (P03952 20-390 partner): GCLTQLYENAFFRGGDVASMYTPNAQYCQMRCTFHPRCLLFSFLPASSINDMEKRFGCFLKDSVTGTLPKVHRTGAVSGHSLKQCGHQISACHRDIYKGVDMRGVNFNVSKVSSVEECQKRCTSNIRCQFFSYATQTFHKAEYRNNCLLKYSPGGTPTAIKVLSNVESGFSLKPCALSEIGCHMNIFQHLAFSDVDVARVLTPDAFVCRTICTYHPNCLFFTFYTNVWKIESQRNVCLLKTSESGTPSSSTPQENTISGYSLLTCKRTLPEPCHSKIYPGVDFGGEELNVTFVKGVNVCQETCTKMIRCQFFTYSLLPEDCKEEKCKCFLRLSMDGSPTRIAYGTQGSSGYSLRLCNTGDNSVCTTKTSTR

Row | Compound | EC50 [nM]
1 | O=C(NCc1ncn2ccc(Cl)cc12)c1cn(Cc2cn3cc(C4CC4)ccc3n2)c2cccnc12 [Example I-29, N-((7-chloroimidazo[1,5-a]pyridin-1-yl)methyl)-1-((6-cyclopropylimidazo[1,2-a]pyridin-2-yl)methyl)-1H-pyrrolo[3,2-b]pyridine-3-carboxamide] | 10 to 100

Same assay, conditions: 500 pM activated kallikrein enzyme, 300 uM Pro-Phe-Arg-7-amido-4-methylcoumarin substrate, 30 min preincubation, 10 min at RT; read-out: Primary Dose Response Assay: Average EC50

Row | Compound | EC50 [nM]
2 | O=C(NCc1ncn2ccc(Cl)c(F)c12)c1cn(Cc2cn3cc(C4CC4)cc(CN4CCCC4)c3n2)nn1 [Example I-295, N-((7-chloro-8-fluoroimidazo[1,5-a]pyridin-1-yl)methyl)-1-((6-cyclopropyl-8-(pyrrolidin-1-ylmethyl)imidazo[1,2-a]pyridin-2-yl)methyl)-1H-1,2,3-triazole-4-carboxamide] | < 1
3 | O=C(NCc1ncn2ccc(Cl)cc12)c1cnn(Cc2cn3ccccc3n2)c1 [Example I-69, N-((7-chloroimidazo[1,5-a]pyridin-1-yl)methyl)-1-(imidazo[1,2-a]pyridin-2-ylmethyl)-1H-pyrazole-4-carboxamide] | 100 to 2000
4 | CCOC(=O)c1nnc(Cc2cc(C3CC3)cn3cc(Cn4cc(C(=O)NCc5ncn6ccc(Cl)c(F)c56)nn4)nc23)o1 [Example I-210a, ethyl 5-((2-((4-(((7-chloro-8-fluoroimidazo[1,5-a]pyridin-1-yl)methyl)carbamoyl)-1H-1,2,3-triazol-1-yl)methyl)-6-cyclopropylimidazo[1,2-a]pyridin-8-yl)methyl)-1,3,4-oxadiazole-2-carboxylate] | < 1
5 | Cn1nc(C(=O)NCc2ncn3ccc(Cl)cc23)nc1Cc1cn2cc(C3CC3)ccc2n1 [Example I-160, N-((7-chloroimidazo[1,5-a]pyridin-1-yl)methyl)-5-((6-cyclopropylimidazo[1,2-a]pyridin-2-yl)methyl)-1-methyl-1H-1,2,4-triazole-3-carboxamide] | 1 to 10
6 | O=C(NCc1ncn2ccc(Br)cc12)c1cnn(Cc2cn3c(Cl)c(Br)ccc3n2)c1 [Example I-40, 1-((6-bromo-5-chloroimidazo[1,2-a]pyridin-2-yl)methyl)-N-((7-bromoimidazo[1,5-a]pyridin-1-yl)methyl)-1H-pyrazole-4-carboxamide] | < 1
7 | O=C(NCc1ncn2ccc(Br)cc12)c1cn(Cc2cn3cc(C4CC4)ccc3n2)nc1C1CC1 [Example I-85, N-((7-bromoimidazo[1,5-a]pyridin-1-yl)methyl)-3-cyclopropyl-1-((6-cyclopropylimidazo[1,2-a]pyridin-2-yl)methyl)-1H-pyrazole-4-carboxamide] | < 1
8 | CCOC(=O)c1nncn1-c1cc(C2CC2)cn2cc(Cn3cc(C(=O)NCc4ncn5ccc(Cl)c(F)c45)nn3)nc12 [Example I-248, ethyl 4-(2-((4-(((7-chloro-8-fluoroimidazo[1,5-a]pyridin-1-yl)methyl)carbamoyl)-1H-1,2,3-triazol-1-yl)methyl)-6-cyclopropylimidazo[1,2-a]pyridin-8-yl)-4H-1,2,4-triazole-3-carboxylate] | < 1
9 | O=C(NCc1ncn2ccc(Cl)c(F)c12)c1cn(Cc2cn3cc(C4CC4)ccc3n2)c(C(=O)O)n1 [Example I-261, 4-(((7-chloro-8-fluoroimidazo[1,5-a]pyridin-1-yl)methyl)carbamoyl)-1-((6-cyclopropylimidazo[1,2-a]pyridin-2-yl)methyl)-1H-imidazole-2-carboxylic acid] | < 1
10 | COC(=O)c1ccc(-n2c(Cn3cc(C(=O)NCc4ncn5ccc(Cl)c(F)c45)nn3)cc3cc(C4CC4)ccc32)cc1 [Example I-254, methyl 4-(2-((4-(((7-chloro-8-fluoroimidazo[1,5-a]pyridin-1-yl)methyl)carbamoyl)-1H-1,2,3-triazol-1-yl)methyl)-5-cyclopropyl-1H-indol-1-yl)benzoate] | 1 to 10
11 | COC(=O)Cc1cc(C2CC2)cn2cc(Cn3cc(C(=O)NCc4ncn5ccc(Cl)cc45)cn3)nc12 [Example I-81, methyl 2-(2-((4-(((7-chloroimidazo[1,5-a]pyridin-1-yl)methyl)carbamoyl)-1H-pyrazol-1-yl)methyl)-6-cyclopropylimidazo[1,2-a]pyridin-8-yl)acetate] | < 1
12 | O=C(NCc1ncn2ccc(Cl)c(F)c12)c1coc(Cc2cn3cc(C4CC4)ccc3n2)n1 [Example I-196, N-((7-chloro-8-fluoroimidazo[1,5-a]pyridin-1-yl)methyl)-2-((6-cyclopropylimidazo[1,2-a]pyridin-2-yl)methyl)oxazole-4-carboxamide] | 1 to 10
13 | O=C(NCc1ncn2ccc(Br)c(F)c12)c1cn(Cc2cn3c(F)c(C4CC4)ccc3n2)nn1 [Example I-145, N-((7-bromo-8-fluoroimidazo[1,5-a]pyridin-1-yl)methyl)-1-((6-cyclopropyl-5-fluoroimidazo[1,2-a]pyridin-2-yl)methyl)-1H-1,2,3-triazole-4-carboxamide] | < 1
14 | O=C(NCc1ncn2ccc(Cl)c(F)c12)c1cn(Cc2cn3cc(C4CC4)cc(N4CCCC4=O)c3n2)nn1 [Example I-203, N-((7-chloro-8-fluoroimidazo[1,5-a]pyridin-1-yl)methyl)-1-((6-cyclopropyl-8-(2-oxopyrrolidin-1-yl)imidazo[1,2-a]pyridin-2-yl)methyl)-1H-1,2,3-triazole-4-carboxamide] | < 1
15 | O=C(NCc1ncn2ccc(Cl)c(F)c12)c1cn(Cc2cn3cc(Cl)cc(C4COC4)c3n2)nn1 [Example I-187, 1-((6-chloro-8-(oxetan-3-yl)imidazo[1,2-a]pyridin-2-yl)methyl)-N-((7-chloro-8-fluoroimidazo[1,5-a]pyridin-1-yl)methyl)-1H-1,2,3-triazole-4-carboxamide] | < 1
16 | CC(Cc1cc(C2CC2)cn2cc(Cn3cc(C(=O)NCc4ncn5ccc(Cl)c(F)c45)nn3)nc12)C(=O)O (stereo not drawn) [Example I-245b, 3-(2-((4-(((7-chloro-8-fluoroimidazo[1,5-a]pyridin-1-yl)methyl)carbamoyl)-1H-1,2,3-triazol-1-yl)methyl)-6-cyclopropylimidazo[1,2-a]pyridin-8-yl)-2-methylpropanoic acid] | < 1
17 | O=C(NCc1ncn2ccc(Cl)c(F)c12)c1cn(Cc2cn3cc(C4CC4)cc(CS(=O)(=O)NCC(F)(F)F)c3n2)nn1 [Example I-281, N-((7-chloro-8-fluoroimidazo[1,5-a]pyridin-1-yl)methyl)-1-((6-cyclopropyl-8-((N-(2,2,2-trifluoroethyl)sulfamoyl)methyl)imidazo[1,2-a]pyridin-2-yl)methyl)-1H-1,2,3-triazole-4-carboxamide] | < 1
18 | O=C(NCc1ncn2ccc(Cl)c(F)c12)c1cn(Cc2cn3cc(C4CC4)cc(C(O)C4COC4)c3n2)nn1 (stereo not drawn) [Example I-279, N-((7-chloro-8-fluoroimidazo[1,5-a]pyridin-1-yl)methyl)-1-((6-cyclopropyl-8-(hydroxy(oxetan-3-yl)methyl)imidazo[1,2-a]pyridin-2-yl)methyl)-1H-1,2,3-triazole-4-carboxamide] | < 1
19 | COC(=O)CCc1nn(Cc2cn3cc(C4CC4)ccc3n2)cc1C(=O)NCc1ncn2ccc(Cl)cc12 [Example I-65, methyl 3-(4-(((7-chloroimidazo[1,5-a]pyridin-1-yl)methyl)carbamoyl)-1-((6-cyclopropylimidazo[1,2-a]pyridin-2-yl)methyl)-1H-pyrazol-3-yl)propanoate] | < 1
20 | O=C(NCc1ncn2ccc(Cl)cc12)c1cnn(Cc2cn3cc(C(F)(F)F)ccc3n2)c1 [Example I-18, N-((7-chloroimidazo[1,5-a]pyridin-1-yl)methyl)-1-((6-(trifluoromethyl)imidazo[1,2-a]pyridin-2-yl)methyl)-1H-pyrazole-4-carboxamide] | 1 to 10
21 | O=C(NCc1ncn2ccc(Cl)c(F)c12)c1cn(Cc2cc3cc(C4CC4)ccc3o2)nn1 [Example I-191, N-((7-chloro-8-fluoroimidazo[1,5-a]pyridin-1-yl)methyl)-1-((5-cyclopropylbenzofuran-2-yl)methyl)-1H-1,2,3-triazole-4-carboxamide] | 1 to 10
22 | CCOC(=O)CCc1cc(C2CC2)cn2cc(Cn3cc(C(=O)NCc4ncn5ccc(Cl)c(F)c45)nn3)nc12 [Example I-163a, ethyl 3-(2-((4-(((7-chloro-8-fluoroimidazo[1,5-a]pyridin-1-yl)methyl)carbamoyl)-1H-1,2,3-triazol-1-yl)methyl)-6-cyclopropylimidazo[1,2-a]pyridin-8-yl)propanoate] | < 1
23 | N#Cc1cc(Cn2cc(C(=O)NCc3ncn4ccc(Cl)c(F)c34)nn2)cc2cc(C3CC3)cnc12 [Example I-273, N-((7-chloro-8-fluoroimidazo[1,5-a]pyridin-1-yl)methyl)-1-((8-cyano-3-cyclopropylquinolin-6-yl)methyl)-1H-1,2,3-triazole-4-carboxamide] | 1 to 10
24 | O=C(NCc1ncn2ccc(Cl)c(F)c12)c1cn(Cc2cn3cc(C4CC4)cc(CC4(C(=O)O)CCCC4)c3n2)nn1 [Example I-221b, 1-((2-((4-(((7-chloro-8-fluoroimidazo[1,5-a]pyridin-1-yl)methyl)carbamoyl)-1H-1,2,3-triazol-1-yl)methyl)-6-cyclopropylimidazo[1,2-a]pyridin-8-yl)methyl)cyclopentane-1-carboxylic acid] | < 1
